Assay results reported in US6084072A, “Purified lectin and methods of use” (The Regents of the University of Michigan, priority 1993, dated 2000).
“Also recorded” adds a separate entry of the source.

Key:
[1] = target: amaranthin (Amaranthus caudatus, UniProt Q71QF2); test: Hapten inhibition of amaranthin/asialo-ovine submaxillary mucin precipitation; format: binding; details: for Relative Inhibition potency ACA: N-Acetylgalactosamine = 1
Description: Precipitation assays were conducted in 1.5 ml centrifuge tubes by the method of So and Goldstein. Indicated amounts of glycoprotein were added to 80 μg of amaranthin, and the total volume was adjusted to 250 μl with phosphate buffered saline. The tubes were incubated at 37° C. and then kept at 4° C. for 2 days. The precipitates were centrifuged, washed with cold Phosphate buffered saline, dissolved in 0.05 N NaOH and analyzed for protein by the method of Lowery et al. using bovine serum albumin as the standard. Hapten inhibition assays were carried out using 80 μg of amaranthin, 5 μg of asialo-ovine submaxillary mucins, and the indicated sugar concentrations. Inhibition was determined relative to the amount of precipitate formed in the control with no sugar added. All precipitation assays were conducted in duplicate to bring the tolerance within ±5% and the amount of precipitate formed average.

[2] = target: T1, PNA (Arachis hypogaea, UniProt P02872); test: Hapten inhibition of PNA/asialoglycophorin precipitation; format: binding; details: Galactose = 1; 40 μg PNA, 6 μg asialoglycophorin
T1 construct: purchased E.Y. Laboratories, San Mateo, Calif; (donated by Dr. A. Chu)
T1 sequence (P02872 24-273): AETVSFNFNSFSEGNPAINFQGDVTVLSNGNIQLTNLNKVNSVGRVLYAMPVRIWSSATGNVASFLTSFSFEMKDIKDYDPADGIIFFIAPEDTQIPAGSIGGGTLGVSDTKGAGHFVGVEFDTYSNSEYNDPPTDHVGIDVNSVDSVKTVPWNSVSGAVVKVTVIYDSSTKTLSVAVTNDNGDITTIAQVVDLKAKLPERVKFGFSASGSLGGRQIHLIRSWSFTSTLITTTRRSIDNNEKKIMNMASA
Description: Precipitation reactions with PNA were carried out similarly, except that 40 μg of PNA was used. Hapten inhibition studies with PNA used 40 μg of PNA, 6 μg of asialoglycophorin, and the indicated sugar concentrations.

amaranthin, sequence (Q71QF2 entry or part of it): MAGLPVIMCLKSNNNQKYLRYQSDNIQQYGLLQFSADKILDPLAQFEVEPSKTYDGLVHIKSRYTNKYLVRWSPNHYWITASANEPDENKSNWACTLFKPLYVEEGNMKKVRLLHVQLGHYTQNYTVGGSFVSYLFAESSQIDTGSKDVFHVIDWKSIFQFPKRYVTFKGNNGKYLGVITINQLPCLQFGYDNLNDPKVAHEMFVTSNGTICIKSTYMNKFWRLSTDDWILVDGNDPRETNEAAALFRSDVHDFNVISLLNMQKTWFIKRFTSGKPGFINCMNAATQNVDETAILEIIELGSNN

SMILES: CC(=O)N[C@H]1[C@@H](OC[C@H]2OC(O)[C@H](O)[C@@H](O)[C@H]2O)O[C@H](CO)[C@H](O)[C@@H]1O (some centres unmarked) [GalNAcα1,6Gal]
- IC50 [1]: 210 µM
- Relative Inhibition potency ACA [1]: 3.8

SMILES: CC(=O)N[C@H]1C(O)O[C@H](CO)[C@@H](O)[C@@H]1O[C@@H]1O[C@H](CO)[C@H](O)[C@H](O)[C@H]1O (some centres unmarked) [Galβ1,3GlcNAC]
- inhibition of amaranthin/AOSM precipitation, in words [1]: very poor inhibitor
- Relative Inhibition potency ACA [1]: < 0.08

SMILES: CO[C@@H]1O[C@H](CO)[C@H](O)[C@H](O)[C@H]1NC(C)=O [Methyl N-acetyl-β-galactosaminide]
- IC50 [1]: 11300 µM
- Relative Inhibition potency ACA [1]: 0.07

SMILES: CC(=O)N[C@H]1[C@@H](Oc2ccc([N+](=O)[O-])cc2)O[C@H](CO)[C@H](O)[C@@H]1O [p-NitrophenylN-acetyl-α-galactosiminide]
- IC50 [1]: 450 µM
- Relative Inhibition potency ACA [1]: 1.8

SMILES: CO[C@@H]1O[C@H](CO)[C@H](O)[C@H](O[C@@H]2O[C@H](CO)[C@H](O)[C@H](O[C@@H]3O[C@H](CO)[C@H](O)[C@H](O)[C@H]3O)[C@H]2NC(C)=O)[C@H]1O [Galβ1,3GalNAcβ1,3Galβ-O--CH3]
- inhibition of amaranthin/AOSM precipitation, in words [1]: poor inhibitor
- Relative Inhibition potency ACA [1]: < 0.08
- Relative Inhibition potency PNA [2]: 38

SMILES: CO[C@H]1O[C@H](CO)[C@H](O)[C@H](O[C@@H]2O[C@H](CO)[C@H](O)[C@H](O)[C@H]2O)[C@H]1NC(C)=O [Galβ1,3GalNAcα-O-CH3]
- IC50 [1]: 3.1 µM
- Relative Inhibition potency PNA [2]: 47

SMILES: CO[C@H]1O[C@H](CO)[C@H](O)[C@H](O)[C@H]1OC(=O)c1ccc([N+](=O)[O-])cc1 [Methyl (2-O-p-nitrobenzoate)-α-galactoside]
- Relative Inhibition potency ACA [1]: < 0.1

SMILES: C[C@H]1OC(O)[C@H](O)[C@@H](O)[C@H]1O (stereo partly drawn) [D-Fucose]
- Relative Inhibition potency ACA [1]: < 0.002

SMILES: CO[C@H]1O[C@H](CO)[C@H](O)[C@H](O)[C@H]1OC(C)=O [Methyl (2-O-acetyl)-α-galactoside]
- IC50 [1]: 2140 µM
- Relative Inhibition potency ACA [1]: 0.4
- times less potent than GalNAcα-O--CH3 ([1]; inhibitor of amaranthin): 8.6

SMILES: OC[C@H]1OC(O)[C@H](O)[C@@H](O)[C@H]1O (some centres unmarked) [Galactose]
- inhibition of amaranthin/AOSM precipitation, in words [1]: very poor inhibitors; also recorded: not by galactose
- Relative Inhibition potency ACA [1]: < 0.002

SMILES: C=CCO[C@@H]1O[C@H](CO)[C@H](O)[C@H](O[C@@H]2O[C@H](CO)[C@H](O)[C@H](O)[C@H]2O)[C@H]1NC(C)=O [Galβ1,3GalNAcβ-O-CH2 -CH = CH2]
- IC50 [1]: 34 µM
- Relative Inhibition potency ACA [1]: 23

SMILES: CC(=O)N[C@H]1[C@H](Oc2ccc([N+](=O)[O-])cc2)O[C@H](CO)[C@H](O)[C@@H]1O [p-NitrophenylN-acetyl-β-Zgalactosaminide]
- Relative Inhibition potency ACA [1]: < 0.3

SMILES: OC[C@H]1OC(O)[C@H](O)[C@@H](O)[C@@H]1O (some centres unmarked) [Glucose]
- Relative Inhibition potency ACA [1]: < 0.002

SMILES: CO[C@H]1O[C@H](CO)[C@H](O)[C@H](O)[C@H]1NC(=O)c1ccc([N+](=O)[O-])cc1 [Methyl (2-N-p-nitrobenzamindo)-α-galactosaminide]
- IC50 [1]: 140 µM
- Relative Inhibition potency ACA [1]: 5.6

SMILES: CO[C@H]1O[C@H](CO)[C@H](O)[C@H](O)[C@H]1NC(=O)c1ccccc1 [Methyl (2-N-benzamido)-α-galactosaminide]
- IC50 [1]: 850 µM
- Relative Inhibition potency ACA [1]: 0.9

SMILES: CO[C@H]1O[C@H](CO)[C@H](O)[C@H](O)[C@H]1O [Methyl α-galactoside]
- Relative Inhibition potency ACA [1]: < 0.003
- Relative Inhibition potency PNA [2]: 2.2

SMILES: OC[C@H]1O[C@H](OC[C@H]2OC(O)[C@H](O)[C@@H](O)[C@@H]2O)[C@H](O)[C@@H](O)[C@H]1O (some centres unmarked) [Galα1,6Glc]
- Relative Inhibition potency ACA [1]: < 0.008

SMILES: COC(=O)CCCCCCCCO[C@H]1O[C@H](CO)[C@H](O)[C@H](O[C@@H]2O[C@H](CO)[C@H](O)[C@H](O)[C@H]2O)[C@H]1NC(C)=O [Galβ1,3GalNAcαO(CH2)8 -CH-CH3]
- IC50 [1]: 1.8 µM
- Relative Inhibition potency ACA [1]: 439
- Relative Inhibition potency PNA [2]: 47

SMILES: OC[C@H]1O[C@@H](O[C@H]2[C@H](O)[C@@H](O)C(O)O[C@@H]2CO)[C@H](O)[C@@H](O)[C@H]1O (some centres unmarked) [Galβ1,4Glc]
- Relative Inhibition potency ACA [1]: < 0.01

SMILES: CC(=O)N[C@H]1[C@@H](O[C@H]2[C@@H](O)[C@@H](CO)OC(O)[C@@H]2O)O[C@H](CO)[C@H](O)[C@@H]1O (some centres unmarked) [GalNAcα1,3Gal]
- IC50 [1]: 310 µM
- Relative Inhibition potency ACA [1]: 2.5

SMILES: CO[C@H]1O[C@H](CO)[C@H](O)[C@H](O[C@@H]2O[C@H](CO)[C@@H](O)[C@H](O)[C@H]2O)[C@H]1NC(C)=O [Gacβ1,3GalNAcα-O-CH3]
- IC50 [1]: 36 µM
- Relative Inhibition potency ACA [1]: 22
- times less potent than Galβ1,3GalNAcα-O--CH3 ([1]; inhibitor of amaranthin): 10

SMILES: CC(=O)N[C@H]1[C@H](OC[C@H]2OC(O)[C@H](O)[C@@H](O)[C@H]2O)O[C@H](CO)[C@H](O)[C@@H]1O (some centres unmarked) [GalNAcβ1,6Gal]
- IC50 [1]: 1000 µM
- Relative Inhibition potency ACA [1]: 0.8

SMILES: CC(=O)N[C@H]1CO[C@H](CO)[C@H](O)[C@@H]1O[C@@H]1O[C@H](CO)[C@H](O)[C@H](O)[C@H]1O [Galβ1,3(2-acetamido-2-deoxy-1,5-anhydrogalactitol)]
- IC50 [1]: 5.8 µM
- Relative Inhibition potency ACA [1]: 136
- times less potent than Galβ1,3GalNAc ([1]; inhibitor of amaranthin): 1.7
- Relative Inhibition potency PNA [2]: 14

SMILES: CC(=O)N[C@H]1[C@H](O[C@H]2[C@@H](O)[C@@H](CF)O[C@H](OCc3ccccc3)[C@@H]2NC(C)=O)O[C@H](CO)[C@@H](O)[C@@H]1O [GlcNAcβ1,3[6-F]GalNAcα-O-benzyl]
- Relative Inhibition potency ACA [1]: < 0.08

SMILES: N[C@H]1C(O)O[C@H](CO)[C@H](O)[C@@H]1O (some centres unmarked) [Galactosamine]
- inhibition of amaranthin/AOSM precipitation, in words [1]: very poor inhibitors
- Relative Inhibition potency ACA [1]: < 0.002

SMILES: C=CCO[C@H]1O[C@H](CO)[C@H](O)[C@H](O[C@@H]2O[C@H](CO)[C@H](O)[C@H](O)[C@H]2O)[C@H]1NC(C)=O [Galβ1,3GalNAcα-O-CH2 CH = CH2]
- IC50 [1]: 2.1 µM
- Relative Inhibition potency ACA [1]: 376
- fold more potent than the anomeric β-O-allyl glycoside ([1]; inhibitor of amaranthin): 16
- Relative Inhibition potency PNA [2]: 38

SMILES: CO[C@H]1O[C@H](CO)[C@H](O)[C@H](O)[C@H]1NC(C)=O [Methyl N-acetyl-α-galactosaminide]
- IC50 [1]: 250 µM
- inhibition of amaranthin/AOSM precipitation, in words [1]: best monosaccharide inhibitor
- Relative Inhibition potency ACA [1]: 3.2

SMILES: COC(=O)CCCCCCCCO[C@H]1O[C@H](CO)[C@H](O)[C@H](O[C@@H]2O[C@H](CO)[C@H](O)[C@H](O[C@]3(C(=O)O)C[C@H](O)[C@@H](NC(C)=O)[C@H]([C@H](O)[C@H](O)CO)O3)[C@H]2O)[C@H]1NC(C)=O [NeuAcα2,3Galβ1,3GalNAcα-O-(CH2)8 --CO2 CH3]
- IC50 [1]: 1.8 µM
- inhibition of amaranthin/AOSM precipitation, in words [1]: does not decrease inhibitory potency
- Relative Inhibition potency ACA [1]: 439

SMILES: CC(=O)N[C@H]1[C@@H](Oc2ccccc2[N+](=O)[O-])O[C@H](CO)[C@H](O)[C@@H]1O[C@@H]1O[C@H](CO)[C@H](O)[C@H](O)[C@H]1O [Galβ1,3GalNAcα-O-o-nitrophenyl]
- IC50 [1]: 2.1 µM
- Relative Inhibition potency ACA [1]: 376

SMILES: COC(=O)[C@H](CO[C@H]1O[C@H](CO)[C@H](O)[C@H](O)[C@H]1NC(C)=O)NC(=O)OCc1ccccc1 [3-O-(2-N-acetyl-α-D-galactopyranosyl-N-(benzyloxcarbonyl)-L-serinemethyl ester]
- IC50 [1]: 53 µM
- Relative Inhibition potency ACA [1]: 15

SMILES: CC(=O)N[C@H]1[C@@H](OCc2ccccc2)O[C@H](CF)[C@H](O)[C@@H]1O[C@@H]1O[C@H](CO)[C@H](O)[C@H](O)[C@H]1O [Galβ1,3[6-F]GalNAcα-O-benzyl]
- IC50 [1]: 1.7 µM
- inhibition of amaranthin/AOSM precipitation, in words [1]: inhibition is equivalent to Galβ1,3GalNAca-O-benzyl
- Relative Inhibition potency ACA [1]: 465

SMILES: C=CCO[C@@H]1O[C@H](CO)[C@@H](O)[C@H](O[C@@H]2O[C@H](CO)[C@H](O)[C@H](O)[C@H]2O)[C@H]1NC(C)=O [Galβ1,3GlcNAcβ-O-CH2 --CH--CH2]
- Relative Inhibition potency ACA [1]: < 0.08

SMILES: CO[C@@H]1C[C@@H](O)[C@@H](O)[C@@H](CO)O1 [Methyl (2-deoxy)-α-galactose]
- Relative Inhibition potency ACA [1]: < 0.08
